“And” between values parts separate entries of the source, which are not always exact repeats. Equal entries are not always repeated.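 Following 48 hours of exposure in 96-well plates, responses at five concentrations were used to interpolate endpoints linearly. GI50 = concentration required for 50% inhibition of growth. The concentration for full growth arrest is given as TGI.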
Assays:
Test in all cases: inhibition of tumour cell growth, NCI panel, 48 h
HCC-2998 colon = system: HCC-2998 colon
HCT-15 colon = system: HCT-15 colon
HL-60(TB) leukemia = system: HL-60(TB) leukemia
RPMI-8226 leukemia = system: RPMI-8226 leukemia
RXF 393 renal = system: RXF 393 renal
SK-MEL-28 melanoma = system: SK-MEL-28 melanoma
SNB-19 CNS = system: SNB-19 CNS
UACC-257 melanoma = system: UACC-257 melanoma
SR leukemia = system: SR leukemia
BT-549 breast = system: BT-549 breast

| SMILES | TGI (HCC-2998 colon) [µM] | TGI (HCT-15 colon) | TGI (HL-60(TB) leukemia) [µM] | TGI (RPMI-8226 leukemia) [µM] | TGI (RXF 393 renal) [µM] | TGI (SK-MEL-28 melanoma) [µM] | TGI (SNB-19 CNS) | TGI (UACC-257 melanoma) [µM] | TGI (SR leukemia) [µM] | GI50 (HCC-2998 colon) [µM] | GI50 (HCT-15 colon) | GI50 (HL-60(TB) leukemia) | GI50 (RPMI-8226 leukemia) [µM] | GI50 (SK-MEL-28 melanoma) [µM] | GI50 (SNB-19 CNS) | GI50 (SR leukemia) [µM] | GI50 (BT-549 breast) [µM] | TGI (BT-549 breast) [µM] | GI50 (RXF 393 renal) [µM] | GI50 (UACC-257 melanoma) [µM] |
| --- | --- | --- | --- | --- | --- | --- | --- | --- | --- | --- | --- | --- | --- | --- | --- | --- | --- | --- | --- | --- |
| NNC(=O)CC(=O)Nc1ccccc1F | > 100 | > 100 µM | > 100 | > 100 | > 100 | > 100 | > 100 µM | > 100 |  |  |  |  |  |  |  |  |  |  |  |  |
| C#CCOCn1cnc2ncnc(Cl)c21 | > 100 |  |  | > 100 |  | > 100 | > 100 µM | > 100 | > 100 |  |  |  |  |  |  |  |  |  |  |  |
| Cc1cc2nc3ccc(N=Nc4ccc(N(C)C)cc4)cc3n(-c3ccccc3)c-2cc1=N | 1.6 | 0.259 µM and 1.31 µM |  | 0.02 |  | 0.241 | 1.08 µM and 1.61 µM |  | 0.394 | 0.0431 | 0.0273 µM and 0.177 µM | 0.00334 µM and 0.0119 µM | 0.00254 | 0.0573 | 0.0212 µM and 0.0731 µM | 0.0208 |  |  |  |  |
| C(=C1\CCC/C(=C/c2ccccc2)C1=NNc1ccccc1)/c1ccccc1 | > 100 | > 100 µM | > 100 | > 100 | > 100 | > 100 | > 100 µM | > 100 |  |  |  |  |  |  |  |  |  |  |  |  |
| OCCc1cnco1 | > 100 |  | > 100 | > 100 | > 100 | > 100 | > 100 µM |  |  |  |  |  |  |  |  |  |  |  |  |  |
| Cc1cc(N(CCCNc2ccnc3cc(Cl)ccc23)Cc2cccs2)nc(Cl)n1 | 17.8 | 12.8 µM |  | 9.71 | 21.7 | 19 | 25.4 µM | 11.1 |  | 4.05 | 2.45 µM |  | 1.43 | 4.87 | 7.58 µM |  | 3.69 | 15.7 | 4.46 | 3.04 |
| CC(C)[C@@H](C(=O)O[C@@H]1/C=C/C(=O)O[C@@H](C)CCC/C=C/[C@@H]2C[C@H](O)C[C@H]21)[N+](C)(C)C | > 100 | > 100 µM | > 100 | > 100 |  | > 100 | > 100 µM | > 100 |  | > 100 | > 100 µM | > 100 µM | > 100 | > 100 | > 100 µM |  | > 100 | > 100 |  | > 100 |
| CC1=C(C(=O)Nc2ccccc2C)C(c2ccc(N(C)C)cc2)C(C(=O)Nc2ccccc2C)=C(C)N1 | > 100 | > 100 µM | 53.8 | > 100 | > 100 | > 100 | > 100 µM | > 100 |  |  |  |  |  |  |  |  |  |  |  |  |
| CSC(=S)N(C)NC(=O)c1cccc(C(=O)NN(C)C(=S)SC)n1 |  | > 100 µM | 48.3 | > 100 | 74.4 | > 100 | > 100 µM | 56.9 | > 100 |  |  |  |  |  |  |  |  |  |  |  |
| COc1cc2c(c3oc(-c4ccc5c(c4)OCO5)c(O)c(=O)c13)CCC(C)(C)O2 | > 100 | > 100 µM | > 100 | > 100 |  | > 100 | > 100 µM |  |  |  |  |  |  |  |  |  |  |  |  |  |
| CN(C)c1nc(N(C)C)nc(N(C)CN(C)c2nc(N(C)C)nc(N(C)C)n2)n1 | > 100 | > 100 µM | > 100 | > 100 | > 100 | > 100 | > 100 µM | > 100 | > 100 |  |  |  |  |  |  |  |  |  |  |  |
| COc1cc(NCC(C#N)C#N)ccc1N=Nc1ccc([N+](=O)[O-])cc1 | > 100 | > 100 µM |  | > 100 | > 100 | > 100 | > 100 µM | > 100 | > 100 |  |  |  |  |  |  |  |  |  |  |  |
| Cc1cn(C2C=CC(=O)C(C)O2)c(=O)[nH]c1=O (centres undefined) |  |  | 38.1 | 47.9 |  | 28.1 | 43.9 µM | 27.8 | 43.8 |  |  |  |  |  |  |  |  |  |  |  |
| CCCNC(=O)c1cc2ccccc2cc1C(=O)OC | > 100 | > 100 µM | > 100 | > 100 |  | > 100 | > 100 µM | > 100 |  |  |  |  |  |  |  |  |  |  |  |  |
| CSc1nc2c(nc(N)n2C2OCC(O)C(O)C2O)c(=O)[nH]1 (centres undefined) | > 100 |  | > 100 |  | > 100 | > 100 | > 100 µM | > 100 | > 100 |  |  |  |  |  |  |  |  |  |  |  |
| CNC1=C(C)C(=O)C(C)=C(C(C)(C)CC(=O)n2cc(F)c(=O)[nH]c2=O)C1=O | > 100 | > 100 µM | > 100 | > 100 | > 100 | > 100 | > 100 µM | > 100 |  |  |  |  |  |  |  |  |  |  |  |  |
| COc1ccc(-c2cc(-c3ccccc3)c(C#N)c(=O)[nH]2)cc1 | > 100 | > 100 µM | > 100 | > 100 | > 100 | > 100 | > 100 µM | > 100 | > 100 |  |  |  |  |  |  |  |  |  |  |  |

From PubChem BioAssay (NCI)
